Where a SMILES comes first, the peptide text is derived from it. The star is where a group is joined. Cbz = O=C(OCc1ccccc1)*
Experiments:
Format in all cases: cell-based
[1] = tested on: fusion protein; assay: Western blot confirmation of fusion protein reduction by HSP90 inhibitors
[2] = tested on: MYC-luciferase fusion protein; assay: Stability time course for 7 MYC-luciferase fusion cell lines, fused (tagged) luciferase; conditions: for increase in MYC-luciferase fusion protein: all 7 cell lines
Procedure: (§1) Seven cell lines were used to measure the half life of the luciferases after blocking all protein synthesis with cyclohexamide. The decay observed for both fused luciferases (MYC-firefly and MYC-nanoluc; FIG. 12B) were compared to the decay observed for the unfused luciferases (renilla and firefly; FIG. 12A) using both the MYC-firefly:renilla and MYC-nanoluc:firefly cell lines 293T, U2OS and the MYC-firefly:renilla cell lines A549, H1299 and LS174T. […] MYC nanoluc half life of approximately 2 hours is longer than MYC-firefly half-life of less than 1 hour and closer to the half-life of untagged firefly. The balanced half-life of MYC-nanoluc and untagged firefly should reduce the number of artefact hits.
(§2) Seven MYC-luciferase reporter cell lines were used to measure changes in MYC-luciferase expression after blocking the proteasome with MG132. The expression of the unfussed renilla and firefly were unchanged for about 6 hours but decreased after 18 hours to a variable extent among cell lines (FIG. 13B).
(§3) Seven MYC-luciferase reporter cell lines were used to measure changes in MYC-luciferase expression after inhibition of ubiquitin dependent proteolysis with the neddylation inhibitor MLN-4924 (FIG. 14A-B).

[3] = tested on: unfused luciferases (renilla and firefly); assay: Stability time course for 7 MYC-luciferase fusion cell lines, unfused (untagged) luciferase
Procedure: as §1, §2, §3

COc1c(C)cnc(Cn2cnc3c(Cl)nc(N)nc32)c1C [BIIB021]
knockdown of protein levels by western blot [1]: confirmed

CC(C)C[C@@H](C=O)NC(=O)[C@H](CC(C)C)NC(=O)[C@H](CC(C)C)NC(=O)OCc1ccccc1 [MG132] (Cbz-Leu-Leu-Leu-aldehyde)
increase in luciferase signals of MYC-nanoluc ([2]; MYC-nanoluc cell lines, MG132): about 4 fold | increase in MYC-luciferase fusion protein ([2]; proteasome blocked with MG132, different time course): ≥ 50% | expression of unfused renilla and firefly ([3]; MG132, after 18 hours, variable extent among cell lines): decreased | expression of unfused renilla and firefly ([3]; MG132, for about 6 hours): unchanged

NS(=O)(=O)OC[C@@H]1C[C@@H](n2ccc3c(N[C@H]4CCc5ccccc54)ncnc32)C[C@@H]1O [MLN-4924]
increase in MYC-luciferase fusion protein ([2]; MLN-4924, typically peaking after 6 hours of treatment): ≥ 50% | expression of unfused renilla and firefly ([3]; MLN-4924, except for the 293T MYC-firefly:renilla cell line): minimally affected

CC1(C)CC(=O)c2c(C(F)(F)F)nn(-c3ccc(C(N)=O)c(N[C@H]4CC[C@H](OC(=O)CN)CC4)c3)c2C1 [PF-04929113]
knockdown of protein levels by western blot [1]: confirmed

From patent US20170306385A1, “METHODS FOR DISCOVERING THERAPEUTICS THAT ALTER THE STABILITY OF TARGET PROTEINS” (Dana-Farber Cancer Institute, Inc., priority 2014, published 2017)
